Patent US20120129811A1, “TRICYCLIC INHIBITORS OF PRO-MATRIX METALLOPROTEINASE ACTIVATION” (priority 2010, published 2012)
Counter-ions that a name gives are not always drawn.

Tests used:
[1] = biological target: T1, proMMP9(20-445;ΔFnII) (SEQ ID NO:6) (Homo sapiens, UniProt P14780, DEL216-390); test: ThermoFluor binding assay with proMMP9(20-445;ΔFnII)
T1 construct: start methionine (N); made in house; host or cells: E. coli BL21(DE3) RIL
T1 sequence (P14780 with tags, fused parts or gaps DEL216-390): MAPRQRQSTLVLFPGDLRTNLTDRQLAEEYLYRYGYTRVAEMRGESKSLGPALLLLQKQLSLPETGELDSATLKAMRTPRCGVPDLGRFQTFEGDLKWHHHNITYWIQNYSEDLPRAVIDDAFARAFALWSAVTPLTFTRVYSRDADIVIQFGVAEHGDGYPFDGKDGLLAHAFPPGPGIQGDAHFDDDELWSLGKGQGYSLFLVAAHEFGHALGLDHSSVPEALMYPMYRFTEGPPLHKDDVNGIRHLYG
How it was run: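 Protein thermal stability was measured with 2.8 μM proMMP9(20-445;ΔFnII) and 50 μM 1,8-ANS in 50 mM HEPES pH 7.0, 100 mM NaCl, 0.001% Tween-20, 2.5 mM MgCl2, 300 μM CaCl2, across serial compound dilutions. Samples were heated 40–90° C at 1° C/min with fluorescence read at 500 nm. Tm was fitted, and binding was derived from thermodynamic parameters obtained by DSC and ThermoFluor.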

[2] = biological target: T2, proMMP9(67-444;ΔFnII) (SEQ ID NO:5) (Homo sapiens, UniProt P14780, DEL216-390); test: ThermoFluor binding assay with proMMP9(67-444;ΔFnII)
T2 construct: start methionine (N); made in house; host or cells: E. coli BL21(DE3) RIL
T2 sequence (P14780 with tags, fused parts or gaps DEL216-390): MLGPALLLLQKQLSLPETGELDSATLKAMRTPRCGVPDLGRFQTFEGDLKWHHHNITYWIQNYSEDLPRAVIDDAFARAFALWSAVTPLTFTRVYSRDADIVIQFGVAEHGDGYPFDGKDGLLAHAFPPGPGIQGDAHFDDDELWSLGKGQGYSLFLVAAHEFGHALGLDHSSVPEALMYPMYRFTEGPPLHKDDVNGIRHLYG
How it was run: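 Thermal shift of 3.5 μM proMMP9(67-444;ΔFnII), desalted beforehand, with 50 μM 1,8-ANS in 50 mM HEPES pH 7.0, 100 mM NaCl, 2.5 mM MgCl2, 300 μM CaCl2, 0.001% Tween-20. Heated 40–90 °C at 1 °C/min, fluorescence read at 500 nm; binding fitted from Tm shifts using DSC- and ThermoFluor-derived unfolding parameters.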

[3] = biological target: T3, full-length proMMP9(1-707) activation by catalytic MMP3 (Homo sapiens, UniProt P14780, R574P); test: proMMP9/MMP3 P126 Activation Assay; assay type: biochemical
T3 construct: made in house; host or cells: proMMP9: HEK293 (secreted); MMP3: E. coli
T3 sequence (P14780 20-707 R574P): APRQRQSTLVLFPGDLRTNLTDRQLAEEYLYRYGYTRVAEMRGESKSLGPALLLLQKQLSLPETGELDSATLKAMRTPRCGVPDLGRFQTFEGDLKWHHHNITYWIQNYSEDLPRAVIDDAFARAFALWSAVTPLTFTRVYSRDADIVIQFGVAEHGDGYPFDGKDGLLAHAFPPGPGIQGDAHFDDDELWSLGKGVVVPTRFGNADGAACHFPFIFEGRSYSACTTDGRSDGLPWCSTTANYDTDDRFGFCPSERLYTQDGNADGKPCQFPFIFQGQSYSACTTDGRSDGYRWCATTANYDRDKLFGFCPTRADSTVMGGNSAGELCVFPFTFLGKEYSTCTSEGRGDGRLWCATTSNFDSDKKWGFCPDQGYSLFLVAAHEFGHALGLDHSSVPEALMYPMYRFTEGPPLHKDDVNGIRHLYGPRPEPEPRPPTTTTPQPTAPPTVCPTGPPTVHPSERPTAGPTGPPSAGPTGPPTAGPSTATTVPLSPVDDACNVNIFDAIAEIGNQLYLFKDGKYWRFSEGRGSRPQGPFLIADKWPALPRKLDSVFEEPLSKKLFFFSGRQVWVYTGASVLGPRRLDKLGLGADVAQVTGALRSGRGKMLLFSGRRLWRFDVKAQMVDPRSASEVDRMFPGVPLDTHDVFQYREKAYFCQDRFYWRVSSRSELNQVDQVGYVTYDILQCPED
Experimental: proMMP9/MMP3 P126 Activation Assay
The reaction volume was 50 μL. […] Reactivity of residual MMP3 towards P-126 substrate was minimal under these conditions.

| Structure (SMILES) | Kd [1] [nM] | Kd [2] [nM] | IC50 [3] [nM] |
| --- | --- | --- | --- |
| Cn1ncc2c3nc(Nc4cc(C(N)=O)ccc4OC(F)(F)F)sc3ccc21 [Example 113, 3-(6-Methyl-6H-3-thia-1,6,7-triaza-as-indacen-2-ylamino)-4-trifluoromethoxy-benzamide.TFA] | 140 | 1500 | 250 |
| NC(=O)c1ccc(OC(F)(F)F)c(Nc2nc3c(ccc4cnccc43)s2)c1 [Example 114, 3-(Thiazolo[4,5-f]isoquinolin-2-ylamino)-4-trifluoromethoxy-benzamide.TFA] | 1200 | 4600 | ~2200 |
| CCn1c(C)nc2ccc3sc(Nc4cc(S(N)(=O)=O)ccc4OC(C)C)nc3c21 [Example 118, 3-(8-Ethyl-7-methyl-8H-imidazo[4′,5′:3,4]benzo[2,1-d]thiazol-2-ylamino)-4-isopropoxy-benzenesulfonamide.TFA] | 290 | 860 | 510 |
| Cc1nc2ccc3sc(Nc4cc(S(N)(=O)=O)ccc4OC(C)C)nc3c2n1C [Example 119, 3-(7,8-Dimethyl-8H-imidazo[4′,5′:3,4]-benzo[2,1-d]thiazol-2-ylamino)-4-isopropoxy-benzenesulfonamide.TFA] | 910 | 1200 | 500 |
| CCn1c(C)nc2ccc3sc(Nc4ccccc4OC)nc3c21 [Example 120, (8-Ethyl-7-methyl-8H-imidazo[4′,5′:3,4]benzo[2,1-d]thiazol-2-yl)-(2-methoxy-phenyl)-amine.TFA] | 3400 | 2600 | 480 |
| CCn1c(C)nc2ccc3sc(Nc4cc(F)ccc4OC)nc3c21 [Example 121, (8-Ethyl-7-methyl-8H-imidazo[4′,5′:3,4]benzo[2,1-d]thiazol-2-yl)-(5-fluoro-2-methoxy-phenyl)-amine.TFA] | 4000 | 860 | 310 |
| COc1ccc(F)cc1Nc1nc2c(ccc3nc(C)n(C)c32)s1 [Example 125, (7,8-Dimethyl-8H-imidazo[4′,5′:3,4]benzo[2,1-d]thiazol-2-yl)-(5-fluoro-2-methoxy-phenyl)-amine.TFA] | 3100 | 600 | 260 |
| COc1ccc(F)cc1Nc1nc2c(ccc3ncn(C)c32)s1 [Example 127, (5-Fluoro-2-methoxy-phenyl)-(8-methyl-8H-imidazo[4′,5′:3,4]benzo[2,1-d]thiazol 2-yl)-amine.TFA] | 4300 | 980 | 270 |
| Cn1cnc2ccc3sc(Nc4cc(S(N)(=O)=O)ccc4OC(F)(F)F)nc3c21 [Example 128, 3-(8-Methyl-8H-imidazo[4′,5′:3,4]benzo[2,1-d]thiazol-2-ylamino)-4-trifluoromethoxy-benzenesulfonamide.TFA] | 4900 | 1500 | 680 |
| CCn1c(C)nc2ccc3sc(Nc4cc(S(N)(=O)=O)ccc4OC)nc3c21 [Example 129, 3-(8-Ethyl-7-methyl-8H-imidazo[4′,5′:3,4]benzo[2,1-d]thiazol-2-ylamino)-4-methoxy-benzenesulfonamide.TFA] | 1200 | 520 | 420 |
| COc1ccc(S(N)(=O)=O)cc1Nc1nc2c(ccc3ncn(C)c32)s1 [Example 130, 4-Methoxy-3-(8-methyl-8H-imidazo[4′,5′:3,4]benzo[2,1-d]thiazol-2-ylamino)-benzenesulfonamide.TFA] | > 95000 | 1200 | 830 |
| CCn1c(C)nc2ccc3sc(Nc4cc(S(C)(=O)=O)ccc4OC)nc3c21 [Example 133, (8-Ethyl-7-methyl-8H-imidazo[4′,5′:3,4]benzo[2,1-d]thiazol-2-yl)-(5-methanesulfonyl-2-methoxy-phenyl)-amine.TFA] | 1300 | 310 | 280 |
| COc1ccc(S(C)(=O)=O)cc1Nc1nc2c(ccc3nc(C)n(C)c32)s1 [Example 134, (7,8-Dimethyl-8H-imidazo[4′,5′:3,4]benzo[2,1-d]thiazol-2-yl)-(5-methanesulfonyl-2-methoxy-phenyl)-amine.TFA] | 1600 | 900 | 260 |
| Cc1nc2ccc3sc(Nc4cc(S(N)(=O)=O)ccc4OC(C)C)nc3c2n1CC(F)(F)F [Example 136, 4-Isopropoxy-3-[7-methyl-8-(2,2,2-trifluoro-ethyl)-8H-imidazo[4′,5′:3,4]benzo[2,1-d]thiazol-2-ylamino]-benzenesulfonamide.TFA] | 770 | 590 | 1100 |
| COc1ccc(S(C)(=O)=O)cc1Nc1nc2c(ccc3nc(C)n(CC(F)(F)F)c32)s1 [Example 138, (5-Methanesulfonyl-2-methoxy-phenyl)-[7-methyl-8-(2,2,2-trifluoro-ethyl)-8H-imidazo[4′,5′:3,4]benzo[2,1-d]thiazol-2-yl]-amine.TFA] | 690 | 480 | 560 |

Continued, values first:

| Kd [1] [nM] | Kd [2] [nM] | IC50 [3] [nM] | Structure (SMILES) |
| --- | --- | --- | --- |
| 3100 | 1700 | 370 | CCCn1ncc2c3nc(Nc4cc(S(C)(=O)=O)ccc4OC)sc3ccc21 [Example 111, (5-Methanesulfonyl-2-methoxy-phenyl)-(6-propyl-6H-3-thia-1,6,7-triaza-as-indacen-2-yl)-amine.TFA] |
| > 95000 | 7000 | 160 | COc1ccc(C#N)cc1Nc1nc2c(ccc3c2cnn3C)s1 [Example 112, 4-Methoxy-3-(6-methyl-6H-3-thia-1,6,7-triaza-as-indacen-2-ylamino)-benzonitrile.TFA] |
| 1200 | 340 | 650 | CCn1c(C)nc2ccc3sc(Nc4cc(S(N)(=O)=O)ccc4OC(F)(F)F)nc3c21 [Example 122, 3-(8-Ethyl-7-methyl-8H-imidazo[4′,5′:3,4]benzo[2,1-d]thiazol-2-ylamino)-4-trifluoromethoxy-benzenesulfonamide.TFA] |
| 5300 | 4700 | 810 | COc1ccc(S(N)(=O)=O)cc1Nc1nc2c(ccc3nc(C)n(C)c32)s1 [Example 123, 3-(7,8-Dimethyl-8H-imidazo[4′,5′:3,4]-benzo[2,1-d]thiazol-2-ylamino)-4-methoxy-benzenesulfonamide.TFA] |
| 5700 | 2800 | 470 | COc1ccccc1Nc1nc2c(ccc3nc(C)n(C)c32)s1 [Example 124, (7,8-Dimethyl-8H-imidazo[4′,5′:3,4]benzo[2,1-d]thiazol-2-yl)-(2-methoxy-phenyl)-amine.TFA] |
| > 95000 | 2200 | 460 | Cc1nc2ccc3sc(Nc4cc(S(N)(=O)=O)ccc4OC(F)(F)F)nc3c2n1C [Example 126, 3-(7,8-Dimethyl-8H-imidazo[4′,5′:3,4]-benzo[2,1-d]thiazol-2-ylamino)-4-trifluoromethoxy-benzenesulfonamide.TFA] |
| > 95000 | 2000 | 590 | CC(C)Oc1ccc(S(N)(=O)=O)cc1Nc1nc2c(ccc3ncn(C)c32)s1 [Example 131, 4-Isopropoxy-3-(8-methyl-8H-imidazo[4′,5′:3,4]benzo[2,1-d]thiazol-2-ylamino)-benzenesulfonamide.TFA] |
| > 95000 | 26000 | 1400 | COc1ccccc1Nc1nc2c(ccc3ncn(C)c32)s1 [Example 132, (2-Methoxy-phenyl)-(8-methyl-8H-imidazo[4′,5′:3,4]benzo[2,1-d]thiazol-2-yl)-amine.TFA] |
| > 95000 | 640 | 270 | COc1ccc(S(C)(=O)=O)cc1Nc1nc2c(ccc3ncn(C)c32)s1 [Example 135, (5-Methanesulfonyl-2-methoxy-phenyl)-(8-methyl-8H-imidazo[4′,5′:3,4]benzo[2,1-d]thiazol-2-yl)-amine.TFA] |
| 440 | 630 | 1100 | CC(C)Oc1ccc(S(N)(=O)=O)cc1Nc1nc2c(ccc3ncn(CC(F)(F)F)c32)s1 [Example 137, 4-Isopropoxy-3-[8-(2,2,2-trifluoro-ethyl)-8H-imidazo[4′,5′:3,4]-benzo[2,1-d]thiazol-2-ylamino]-benzenesulfonamide.TFA] |
| > 95000 | 960 | 330 | CCn1c(C)nc2ccc3sc(Nc4cc(F)ccc4OC(C)C)nc3c21 [Example 139, (8-Ethyl-7-methyl-8H-imidazo[4′,5′:3,4]benzo[2,1-d]thiazol-2-yl)-(5-fluoro-2-isopropoxy-phenyl)-amine.TFA] |
